For the assay, the target named is T1, methionine aminopeptidase 1 (MetAP1) (Plasmodium yoelii, UniProt Q7RFT5).
T1 sequence (Q7RFT5 1-491): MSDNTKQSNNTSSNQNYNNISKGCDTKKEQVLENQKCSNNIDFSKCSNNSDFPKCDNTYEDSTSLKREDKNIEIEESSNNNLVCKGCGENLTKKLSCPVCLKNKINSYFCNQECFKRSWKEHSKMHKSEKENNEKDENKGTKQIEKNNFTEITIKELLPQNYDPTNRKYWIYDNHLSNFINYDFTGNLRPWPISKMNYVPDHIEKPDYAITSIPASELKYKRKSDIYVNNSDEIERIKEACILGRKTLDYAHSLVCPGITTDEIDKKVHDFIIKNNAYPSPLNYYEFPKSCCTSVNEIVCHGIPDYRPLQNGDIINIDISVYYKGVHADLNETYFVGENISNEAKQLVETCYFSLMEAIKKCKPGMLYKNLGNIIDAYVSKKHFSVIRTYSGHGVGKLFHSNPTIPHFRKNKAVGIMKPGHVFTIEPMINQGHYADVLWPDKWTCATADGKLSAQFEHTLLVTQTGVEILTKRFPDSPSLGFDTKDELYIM
In words: competition ultrafiltration with HPLC-UV. It counts as binding. Conditions: 4 °C; competes with fragments 4-9.

Results on one compound are retold here after article PMC3166647 (Analytical and bioanalytical chemistry, 2011).

For the compound `CSCC[C@H](N)C(=O)O` [methionine], the “competition ultrafiltration with HPLC-UV” value is recorded as “methionine was able to compete against lower-affinity ligands more efficiently than higher-affinity ligands”.
